Measured values published in PMC7004140, “In vitro hepatotoxicity of Petasites hybridus extract (Ze 339) depends on the concentration, the cytochrome activity of the cell system, and the species used” (Phytotherapy Research, 2019).

Columns and labels:
CYP3A4 (human) = target: T1, CYP3A4 (human) (Homo sapiens, UniProt P08684); experiment: Metabolism by isolated human CYP3A4; format: in vitro ADME; conditions: petasins 20 μM, 60 min
T1 construct: purchased BD Gentest (Switzerland); host or cells: baculovirus expression system
Source text: (§1) The metabolism of petasin, isopetasin, and neopetasin was investigated using three different S9 fractions originating from three different species (isolated from rat, dog, and human liver homogenates containing cytochrome P450 isoforms) and isolated cytochromes of two different species (human and rat; rat analogues of the respective human cytochromes were used). For the expression of the different cytochromes, a baculovirus expression system was used according to supplier's manual. The S9 fractions or respectively single P450 cytochromes were used to mimic the liver metabolism by in vitro incubation.
(§2) The assay was carried out in triplicate in 1.5 ml glass vials with a final concentration of 20 μM of petasin, isopetasin, and neopetasin. The incubation was performed in a 37°C warm water bath. S9 fractions were thawed slowly on ice. Four different approaches were pursued by testing: (a) petasin, neopetasin, and isopetasin before (0 min) and after 60 min incubations with S9 fraction; (b) petasin, neopetasin, and isopetasin without S9 fraction after 60 min incubation; (c) vehicle as negative controls; and (d) cofactors of S9 fraction after 60‐min incubation.
(§3) A mixture of NADPH regeneration systems A (20‐fold) and B (100‐fold), phosphate buffer, and H2O was added, preincubated at 37°C, and shaken gently for 5 min. Afterwards, the recommended amount between 10 and 40 pmol/ml of enzyme or enzyme mixture was added according to manufacturer's instruction and incubated for further 60 min at 37°C and gently shaken. Afterwards, the reactions were stopped by addition of acetonitrile (400 μl). For the control sample, acetonitrile was added at 0 min incubation. The samples were centrifuged for 3 min at 10,000 × g. The supernatant was transferred to high‐performance liquid chromatography vials and analyzed by ultra‐performance liquid chromatography mass spectrometry (UPLC/MS). The UPLC analysis was performed with an UPLC Acquity H Class from Waters (Waters Corporation, Switzerland) including a quaternary high‐pressure gradient pump, an automatic sample injector, and a column thermostat. […]

CYP1A2 (human) = target: T2, CYP1A2 (human) (Homo sapiens, UniProt P05177); experiment: Metabolism by isolated human CYP1A2; format: in vitro ADME; conditions: petasins 20 μM, 60 min
T2 construct: purchased BD Gentest (Switzerland); host or cells: baculovirus expression system
T2 sequence (P05177 1-516): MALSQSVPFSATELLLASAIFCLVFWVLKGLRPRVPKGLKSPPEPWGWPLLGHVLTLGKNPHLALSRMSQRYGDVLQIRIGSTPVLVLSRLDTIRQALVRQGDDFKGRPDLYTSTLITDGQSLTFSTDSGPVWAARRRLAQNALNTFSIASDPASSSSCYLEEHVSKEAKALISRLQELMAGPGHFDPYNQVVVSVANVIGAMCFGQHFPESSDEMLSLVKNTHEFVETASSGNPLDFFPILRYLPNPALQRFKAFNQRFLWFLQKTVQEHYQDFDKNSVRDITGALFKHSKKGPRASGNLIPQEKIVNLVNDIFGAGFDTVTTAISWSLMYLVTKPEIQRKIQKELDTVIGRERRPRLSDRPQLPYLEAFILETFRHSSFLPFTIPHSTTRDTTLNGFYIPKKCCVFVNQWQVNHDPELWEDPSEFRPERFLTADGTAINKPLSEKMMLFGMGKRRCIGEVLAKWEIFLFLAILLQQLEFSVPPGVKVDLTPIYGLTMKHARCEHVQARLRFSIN
Source text: as §1, §2, §3

HepaRG cells = experiment: WST-1 metabolic activity (cytotoxicity) in HepaRG cells; format: cell-based, human; conditions: 250 μM, 4 hr
Description: (§4) HepG2 and H‐4‐II‐E cells were differentiated for 24 hr. HepaRG cells were directly seeded in precoated 96‐well microtiter plates and were incubated in William's medium with general purpose supplements according to manufacturer's manual until adherence. All cells were treated with Ze 339 (up to 100 μg/ml) or petasin, isopetasin, neopetasin, petasol, isopetasol, petasin mixture, fatty acid mixture, and reconstituted extracts (up to 250 μM) for 4 hr.
(§5) In the three cell lines, cytotoxicity was defined as a decrease in metabolic activity of ≥20% in the WST‐1 assay. At the end of the experiment, 10 μl WST‐1 reagent was added to each well. Plates were then incubated for 2 hr to allow for the reduction of WST‐1 reagent. Absorbance was measured using a microplate absorbance reader (Infinite M 200, Tecan Trading Ltd., Switzerland) at 450 nm, reference wavelength of 620 nm. Due to some matrix effect, the lowest concentration (0.02 μg/ml for Ze 339 and 3.9 μM for single constituents and mixtures) of each substance tested was defined as 100% metabolic activity. Results were expressed as percentage of the control metabolic activity, and data were presented as mean values ± SEM (n = 3–6).
(§6) Concentration‐response analysis was done using the sigmoidal Hill equation: E(t) = E0 − Emax × C(t)^N/(IC50 ^N + C(t)^N), where E is the effect at time t, E0 the effect at baseline (time = 0), IC50 the concentration yielding 50% of the maximal effect (Emax), and N denotes the sigmoidicity coefficient (Origin 2017 Software). For statistical analysis, analysis of variance with Dunnett's multicomparison test was used to correct for multiplicity of testing (IBM SPSS Statistics software, version 25, IBM Corp., USA). The level of significance was ^* p < .05, ^** p < .01 and ^*** p < .001; NS = no significance.

CYP2B6 (human) = target: T3, CYP2B6 (human) (Homo sapiens, UniProt P20813); experiment: Metabolism by isolated human CYP2B6; format: in vitro ADME; conditions: petasins 20 μM, 60 min
T3 construct: purchased BD Gentest (Switzerland); host or cells: baculovirus expression system
T3 sequence (P20813 1-491): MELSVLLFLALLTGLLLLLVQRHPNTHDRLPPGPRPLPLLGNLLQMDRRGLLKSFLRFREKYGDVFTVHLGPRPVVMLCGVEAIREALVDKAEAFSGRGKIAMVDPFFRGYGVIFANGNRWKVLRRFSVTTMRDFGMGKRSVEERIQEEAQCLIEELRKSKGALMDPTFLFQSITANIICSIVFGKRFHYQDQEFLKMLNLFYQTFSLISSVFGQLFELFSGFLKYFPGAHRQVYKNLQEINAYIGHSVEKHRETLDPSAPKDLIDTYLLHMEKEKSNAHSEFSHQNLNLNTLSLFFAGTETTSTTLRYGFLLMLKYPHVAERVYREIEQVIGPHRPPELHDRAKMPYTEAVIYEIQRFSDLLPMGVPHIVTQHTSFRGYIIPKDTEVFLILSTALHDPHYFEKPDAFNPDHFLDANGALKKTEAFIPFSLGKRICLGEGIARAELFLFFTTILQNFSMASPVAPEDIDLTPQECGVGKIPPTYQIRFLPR
Source text: as §1, §2, §3

HepG2 cells = experiment: WST-1 metabolic activity (cytotoxicity) in HepG2 cells; format: cell-based, human; conditions: HepG2, 250 μM (highest concentration), 4 hr
Description: as §4, §5, §6

T1 sequence (P08684 whole entry): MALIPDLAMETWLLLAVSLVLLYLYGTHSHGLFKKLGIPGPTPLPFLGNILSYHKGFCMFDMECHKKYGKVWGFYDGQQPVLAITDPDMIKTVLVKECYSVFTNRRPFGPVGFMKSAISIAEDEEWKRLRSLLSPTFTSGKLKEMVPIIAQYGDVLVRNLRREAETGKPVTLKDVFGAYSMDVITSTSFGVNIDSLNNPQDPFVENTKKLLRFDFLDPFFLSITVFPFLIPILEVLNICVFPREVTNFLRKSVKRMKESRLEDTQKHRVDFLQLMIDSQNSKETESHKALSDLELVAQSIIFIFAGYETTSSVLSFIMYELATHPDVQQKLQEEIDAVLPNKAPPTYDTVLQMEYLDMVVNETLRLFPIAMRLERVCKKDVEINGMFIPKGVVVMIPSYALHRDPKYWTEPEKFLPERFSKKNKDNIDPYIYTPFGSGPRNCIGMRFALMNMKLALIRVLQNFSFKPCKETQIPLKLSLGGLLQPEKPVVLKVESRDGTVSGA

Row | Compound | extent of metabolism by CYP3A4 (human) (CYP3A4 (human)) [%] | extent of metabolism by CYP1A2 (human) (CYP1A2 (human)) [%] | metabolic activity (HepaRG cells) [%] | extent of metabolism by CYP2B6 (human) (CYP2B6 (human)) [%] | metabolic activity compared with the reference concentration (3.9 μM) (HepG2 cells) [%]
1 | C/C=C(/C)C(=O)O[C@@H]1CCC2=CC(=O)C(=C(C)C)C[C@]2(C)[C@H]1C [isopetasin] | 87 | 21 | 73 | 13 | 65.6
2 | C=C(C)[C@H]1C[C@@]2(C)C(=CC1=O)CC[C@@H](OC(=O)/C(C)=C\C)[C@@H]2C [neopetasin] | 86 | < 1 | 28.9 | 20 | 66.8
3 | C=C(C)[C@@H]1C[C@@]2(C)C(=CC1=O)CC[C@@H](OC(=O)/C(C)=C\C)[C@@H]2C [petasin] | 34 | 4 | 37.7 | 50 | 60.9
